{"source": "patent US20260022143A1", "about": "“Cyclic Peptide Inhibitors of IL-23” (JANSSEN PHARMACEUTICA NV, priority 2022, published 2026)", "note": "Positions of bridges follow the written chain, without caps; N, C: chain ends. Non-standard residues stand in square brackets, D forms with d. Residues, ends and D or L forms follow the SMILES beside them. *: point of attachment. Me3N+(CH2)2O(CH2)2O(CH2)2CO = C[N+](C)(C)CCOCCOCCC(=O)*; Trp(7-Me) = Cc1cccc2c(C[C@H](N)C(=O)O)c[nH]c12; Hexanoyl(6-NMe3+) = C[N+](C)(C)CCCCCC(=O)*; 2Nal = N[C@@H](Cc1ccc2ccccc2c1)C(=O)O; AEF = NCCOc1ccc(C[C@H](N)C(=O)O)cc1; 3Pal = N[C@@H](Cc1cccnc1)C(=O)O; Pen = CC(C)(S)[C@H](N)C(=O)O; Thp = NC1(C(=O)O)CCOCC1; Sar = CNCC(=O)O", "data": [{"assay": "Exposed Polar Surface Area (EPSA)", "type": "physicochemical", "conditions": "SFC on Chirex 3014 column; sample 1 mM DMSO stock; read-out: EPSA", "summary_of_the_method": "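Retention-based polarity: supercritical CO2 with 20 mM ammonium formate in MeOH (5–60%, 20%/min), Chirex 3014 column, 35 °C. Calibrated against 8 standards to give EPSA (Å^2); each sample measured twice.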", "units": {"EPSA": "A^2"}, "values": [{"molecule": "CC(=O)NCCCC[C@@H]1NC(=O)[C@H](Cc2c[nH]c3c(C)cccc23)NC(=O)[C@H]([C@@H](C)O)NC(=O)[C@H](CC(N)=O)NC(=O)[C@@H](NC(=O)[C@@H](CCCCNC(=O)CCOCCOCC[N+](C)(C)C)NC(C)=O)C(C)(C)SSC(C)(C)[C@@H](C(=O)N[C@@H](Cc2ccc(OCCN)cc2)C(=O)N[C@@H](Cc2ccc3ccccc3c2)C(=O)NC2(C(=O)N[C@@H](CCC(=O)O)C(=O)N[C@@H](CC(N)=O)C(=O)N[C@@H](Cc3cccnc3)C(=O)N(C)CC(N)=O)CCOCC2)NC1=O", "note": "[compound 84] (Ac-[dK](Me3N+(CH2)2O(CH2)2O(CH2)2CO)[Pen]NT[Trp(7-Me)]K(Ac)[Pen][AEF][2Nal][Thp]EN[3Pal][Sar]-NH2; disulfide 2-7)", "EPSA": 166}, {"molecule": "CC(=O)NCCCC[C@@H]1NC(=O)[C@H](Cc2c[nH]c3c(C)cccc23)NC(=O)[C@H]([C@@H](C)O)NC(=O)[C@H](CC(N)=O)NC(=O)[C@@H](NC(C)=O)C(C)(C)SSC(C)(C)[C@@H](C(=O)N[C@@H](Cc2ccc(OCCN)cc2)C(=O)N[C@@H](Cc2ccc3ccccc3c2)C(=O)NC2(C(=O)N[C@@H](CCCCNC(=O)CCCCC[N+](C)(C)C)C(=O)N[C@@H](CC(N)=O)C(=O)N[C@@H](Cc3cccnc3)C(=O)N(C)CC(N)=O)CCOCC2)NC1=O", "note": "[compound 85] (Ac-[Pen]NT[Trp(7-Me)]K(Ac)[Pen][AEF][2Nal][Thp]K(Hexanoyl(6-NMe3+))N[3Pal][Sar]-NH2; disulfide 1-6)", "EPSA": 151}, {"molecule": "CC(=O)NCCCC[C@@H]1NC(=O)[C@H](Cc2c[nH]c3c(C)cccc23)NC(=O)[C@H]([C@@H](C)O)NC(=O)[C@H](CC(N)=O)NC(=O)[C@@H](NC(C)=O)C(C)(C)SSC(C)(C)[C@@H](C(=O)N[C@@H](Cc2ccc(OCCN)cc2)C(=O)N[C@@H](Cc2ccc3ccccc3c2)C(=O)NC2(C(=O)N[C@@H](CCCCNC(=O)CCOCCOCC[N+](C)(C)C)C(=O)N[C@@H](CC(N)=O)C(=O)N[C@@H](Cc3cccnc3)C(=O)N(C)CC(N)=O)CCOCC2)NC1=O", "note": "[compound 86] (Ac-[Pen]NT[Trp(7-Me)]K(Ac)[Pen][AEF][2Nal][Thp]K(Me3N+(CH2)2O(CH2)2O(CH2)2CO)N[3Pal][Sar]-NH2; disulfide 1-6)", "EPSA": 150}, {"molecule": "CC(=O)NCCCC[C@@H]1NC(=O)[C@H](Cc2c[nH]c3c(C)cccc23)NC(=O)[C@H]([C@@H](C)O)NC(=O)[C@H](CC(N)=O)NC(=O)[C@@H](NC(=O)[C@@H](CCCCNC(=O)CCOCCOCC[N+](C)(C)C)NC(C)=O)C(C)(C)SSC(C)(C)[C@@H](C(=O)N[C@@H](Cc2ccc(OCCN)cc2)C(=O)N[C@@H](Cc2ccc3ccccc3c2)C(=O)NC2(C(=O)N[C@@H](CCCCNC(C)=O)C(=O)N[C@@H](CC(N)=O)C(=O)N[C@@H](Cc3cccnc3)C(=O)N(C)CC(N)=O)CCOCC2)NC1=O", "note": "[compound 88] (Ac-[dK](Me3N+(CH2)2O(CH2)2O(CH2)2CO)[Pen]NT[Trp(7-Me)]K(Ac)[Pen][AEF][2Nal][Thp]K(Ac)N[3Pal][Sar]-NH2; disulfide 2-7)", "EPSA": 158}, {"molecule": "CC(=O)NCCCC[C@@H]1NC(=O)[C@H](Cc2c[nH]c3c(C)cccc23)NC(=O)[C@H]([C@@H](C)O)NC(=O)[C@H](CC(N)=O)NC(=O)[C@@H](NC(=O)CCCCC[N+](C)(C)C)C(C)(C)SSC(C)(C)[C@@H](C(=O)N[C@@H](Cc2ccc(OCCN)cc2)C(=O)N[C@@H](Cc2ccc3ccccc3c2)C(=O)NC2(C(=O)N[C@@H](CCCCNC(C)=O)C(=O)N[C@@H](CC(N)=O)C(=O)N[C@@H](Cc3cccnc3)C(=O)N(C)CC(N)=O)CCOCC2)NC1=O", "note": "[compound 89] ({Hexanoyl(6-NMe3+)}-[Pen]NT[Trp(7-Me)]K(Ac)[Pen][AEF][2Nal][Thp]K(Ac)N[3Pal][Sar]-NH2; disulfide 1-6 (inferred))", "EPSA": 160}]}]}
